{
  "source": "patent US20030134851A1",
  "about": "“Methods and compositions for providing glutamine” (priority 2001, published 2003)",
  "key": {"[1]": {"conditions": "orally administered radiolabeled, rats; cited from earlier work"}, "[2]": {"conditions": "administered intravenously, humans; cited from earlier work"}, "[3]": {"test_system": "small intestine bioptic fragments of patients with untreated celiac disease", "experiment": "Organ culture of small intestine biopsies of untreated celiac patients (TUNEL, CD25)", "assay_type": "cell-based, human", "conditions": "40 ug/ml, 24 hours organ culture", "protocol": "The study was performed in a blind fashion. For this study a organ culture model of celiac, which is a widely used and validated to explore gluten toxicity and mucosal damage in celiac disease was utilized. For the purpose of this project small intestine bioptic fragments of patients with untreated celiac disease were used. Biopsies of untreated celiac patients are ideal to monitor aspects of mucosal damage including induction of epithelial apoptosis and increase of mucosal inflammation.\nTwelve adult patients, who were diagnosed as potential untreated celiac patients, were enrolled. Their disease was confirmed by clinical signs, the presence of high titres of anti-tissue transglutaminase and histological analysis of small intestine biopsies.\nOrgan cultures were performed using standard methods described in Maiuri, L. et al, Gastroenterology 110, 1368-1378. (1996). Briefly a small biopsy fragment (around 1 mm×1 mm) was put on stainless steel mesh and cultured in medium supplemented with the different compounds for a period of 24 hours. The standard positive and negative controls used in studies involving celiac patients and in vitro challenge of biopsies were utilized. The positive control was 1 mg/ml of gliadin peptic-tryptic digest. The negative control was the medium alone. All the compounds to be tested were used at the final concentration of 40 ug/ml. […]\nAntigen detection on frozen tissue sections was performed by immunohistochemistry as described in Maiuri, L. et al. Blockage of T-cell costimulation inhibits T-cell action in Celiac disease. […] At least 5 slides for each sample were blindly evaluated. […]\nThe total number of TUNEL+ enterocytes was referred as percentage of enterocytes. The total number of CD25+ cells in the lamina propria was determined within a standard reference area of 1 mm^2. The counts were performed at a microscope with a calibrated ocular graticule aligned parallel to the muscolaris mucosae and independently analysed by two observers; the results were compared afterwards."}},
  "note": "“Also recorded” adds a separate entry of the source.",
  "data": [
    {"smiles": "CC(=O)N[C@@H](CCC(N)=O)C(=O)O", "note": "[N-acetyl-L-glutamine]", "values": [
      {"measurement": "Absorption across the intestinal mucosa", "setting": "[1]", "value": "absorbed intact"},
      {"measurement": "Dose excreted in the urine", "setting": "[2]", "value": "20-40%"},
      {"measurement": "Induction of epithelial apoptosis (TUNEL) and sub-epithelial inflammation (CD25)", "setting": "[3]", "value": "did not induce any effect"},
      {"measurement": "Trophic effect on the biopsies of untreated celiac patients", "setting": "[3]", "value": "clear trophic effect; also recorded: appears to improve the overall condition of the mucosa even compared to medium alone"},
      {"measurement": "Trophic effect on the biopsies of untreated celiac patients", "setting": "[3]; listed as N-acetyl-glutamine", "value": "clear trophic effect"}
    ]}
  ]
}
